Among the data in patent publication US8754071B2 (priority 2011, dated 2014) are IC50 values, retold here.

The target in one assay is T1, c-kit (Homo sapiens, UniProt P10721).
T1 construct: human Mo7e cells which endogenously express c-kit; endogenous in cells; host or cells: human Mo7e cells (promegakaryocytic leukemia line), stimulated with human recombinant SCF
T1 sequence (P10721 26-976): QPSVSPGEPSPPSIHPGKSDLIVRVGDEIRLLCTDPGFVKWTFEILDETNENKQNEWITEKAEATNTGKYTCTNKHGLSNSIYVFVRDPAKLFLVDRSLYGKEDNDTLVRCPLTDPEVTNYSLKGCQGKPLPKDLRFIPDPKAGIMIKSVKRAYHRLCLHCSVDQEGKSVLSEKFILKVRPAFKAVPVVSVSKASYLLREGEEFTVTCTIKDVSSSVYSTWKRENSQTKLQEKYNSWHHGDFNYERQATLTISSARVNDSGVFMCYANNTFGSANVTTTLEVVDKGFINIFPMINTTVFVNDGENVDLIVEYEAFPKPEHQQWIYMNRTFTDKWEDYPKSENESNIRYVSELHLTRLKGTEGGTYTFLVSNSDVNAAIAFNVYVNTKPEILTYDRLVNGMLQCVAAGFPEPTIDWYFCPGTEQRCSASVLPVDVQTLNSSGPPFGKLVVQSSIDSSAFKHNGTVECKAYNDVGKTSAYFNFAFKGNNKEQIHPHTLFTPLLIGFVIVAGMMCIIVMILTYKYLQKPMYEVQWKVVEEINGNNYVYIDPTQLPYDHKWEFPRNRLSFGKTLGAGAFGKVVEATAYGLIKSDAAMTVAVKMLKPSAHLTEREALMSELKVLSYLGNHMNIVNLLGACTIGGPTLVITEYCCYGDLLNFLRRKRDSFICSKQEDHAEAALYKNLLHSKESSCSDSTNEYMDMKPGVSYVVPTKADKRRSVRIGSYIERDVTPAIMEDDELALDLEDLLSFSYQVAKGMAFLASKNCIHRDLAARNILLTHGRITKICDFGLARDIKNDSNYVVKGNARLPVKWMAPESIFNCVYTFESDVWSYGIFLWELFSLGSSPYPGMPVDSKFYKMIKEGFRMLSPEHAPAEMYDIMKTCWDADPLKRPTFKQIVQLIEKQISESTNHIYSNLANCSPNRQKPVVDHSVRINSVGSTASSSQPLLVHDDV
The experiment in a line: Mo7e cell proliferation assay (SCF dependent proliferation). The class given is cell-based. As to conditions: Table 1; human Mo7e cells stimulated with SCF, 48 hours, CellTiter Glo; 1% FBS; read-out: c-kit (Mo7e). The procedure:
Mo7e Cell Proliferation Assay The compounds of Table 1 and Table 2 were tested for inhibition of SCF dependent proliferation using human Mo7e cells which endogenously express c-kit in a 384 well format. […] After 48 hours of incubation at 37° C., cell viability was measured by adding 25 uL of CellTiter Glo (Promega) to the cells and the luminescence was measured by a […] camera (Molecular Devices). […] The IC50 value is given as that concentration of the test compound in question that provoke a response halfway between the baseline and maximum responses.
As for `COC(=O)N1CC(c2nc(-c3ccc(C)c(NC(=O)c4cnc5ccc(OC)cn45)c3)no2)C1` [F60], the IC50 stood at 28 nM. On to `Cc1ccc(-c2noc([C@H]3CCC(F)(F)CO3)n2)cc1NC(=O)c1cnc2ccccn12` [F12], for which the IC50 came out at 32 nM.

For `CC(C)(C)OC(=O)N1CC(c2nc(-c3ccc(F)c(NC(=O)c4cnc5ccccn45)c3)no2)C1` [F27, tert-butyl 3-(3-(4-fluoro-3-(imidazo[1,2-a]pyridine-3-carboxamido)phenyl)-1,2,4-oxadiazol-5-yl)azetidine-1-carboxylate], the IC50 is 997 nM. Still for that read-out and setting: under `COC(=O)N1CC(c2nc(-c3ccc(C)c(NC(=O)c4cnc5ccccn45)c3)no2)C1` [F15, methyl 3-(3-(3-(imidazo[1,2-a]pyridine-3-carboxamido)-4-methylphenyl)-1,2,4-oxadiazol-5-yl)azetidine-1-carboxylate] stands 20 nM; under `COC(=O)N1CC(c2nc(-c3ccc(C)c(NC(=O)c4cnc5cc(CCC(C)(C)O)ccn45)c3)no2)C1` [F74, methyl 3-(3-(3-(7-(3-hydroxy-3-methylbutyl)imidazo[1,2-a]pyridine-3-carboxamido)-4-methylphenyl)-1,2,4-oxadiazol-5-yl)azetidine-1-carboxylate], 51 nM; under `Cc1ccc(-c2noc(N3CC(F)(F)C3)n2)cc1NC(=O)c1cnc2ccccn12` [F78], 55 nM. Turning to `Cc1ccc(Nc2noc([C@H]3CCCO3)n2)cc1NC(=O)c1cnc2ccccn12` [F71], the IC50 was 11 nM.

On to `Cc1ccc(-c2noc(C3CN(S(C)(=O)=O)C3)n2)cc1NC(=O)c1cnc2ccccn12` [F14], for which the IC50 came to 42 nM. For the molecule `Cc1ccc(-c2noc(CN3CCC(F)(F)CC3)n2)cc1NC(=O)c1cnc2ccccn12` [F30], the IC50 came out at 20 nM. Still for that read-out and setting: under `Cc1ccc(-c2nc(N3CCC(F)CC3)no2)cc1NC(=O)c1cnc2ccccn12` [F5] stands 34 nM; under `COC(=O)N1CC(c2nc(-c3ccc(C)c(NC(=O)c4cnc5ccc(C(F)(F)F)cn45)c3)no2)C1` [F52, methyl 3-(3-(4-methyl-3-(6-(trifluoromethyl)imidazo[1,2-a]pyridine-3-carboxamido)phenyl)-1,2,4-oxadiazol-5-yl)azetidine-1-carboxylate], 218 nM. Consider `COC(=O)N1CC(c2nc(-c3ccc(C)c(NC(=O)c4cnc5cc(-c6ccn(C)n6)ccn45)c3)no2)C1` [F56, methyl 3-(3-(4-methyl-3-(7-(1-methyl-1H-pyrazol-3-yl)imidazo[1,2-a]pyridine-3-carboxamido)phenyl)-1,2,4-oxadiazol-5-yl)azetidine-1-carboxylate], for which the IC50 stood at 6 nM.

With `Cc1ccc2ncc(C(=O)Nc3cc(-c4noc(N5CC(O)(C(F)(F)F)C5)n4)ccc3C)n2c1` [F6], the IC50 was found to be 26 nM.

Take `Cc1ccc(-c2noc(C[C@@H]3CCN(S(C)(=O)=O)C3)n2)cc1NC(=O)c1cnc2ccccn12` [F38]: the IC50 is 90 nM.

As for `Cc1ccc(-c2noc([C@H](C)N3CC(F)(F)C3)n2)cc1NC(=O)c1cnc2ccccn12` [F50], the IC50 was found to be 77 nM.

In the case of `COC(=O)NC1(c2nc(-c3ccc(C)c(NC(=O)c4cnc5ccccn45)c3)no2)COC1` [F26, methyl (3-(3-(3-(imidazo[1,2-a]pyridine-3-carboxamido)-4-methylphenyl)-1,2,4-oxadiazol-5-yl)oxetan-3-yl)carbamate], the IC50 came out at 103 nM. As for `COC(=O)N1CC(c2nc(-c3ccc(C)c(NC(=O)c4cnc5ccc(CCC(C)(C)O)cn45)c3)no2)C1` [F67, methyl 3-(3-(3-(6-(3-hydroxy-3-methylbutyl)imidazo[1,2-a]pyridine-3-carboxamido)-4-methylphenyl)-1,2,4-oxadiazol-5-yl)azetidine-1-carboxylate], the IC50 amounted to 29 nM. On the same count and under the same terms, under `Cc1ccc(-c2noc(C[C@@H]3CCCN3S(C)(=O)=O)n2)cc1NC(=O)c1cnc2ccccn12` [F41] stands 92 nM. Regarding `Cc1ccc(Nc2noc(C3CCCCO3)n2)cc1NC(=O)c1cnc2ccccn12` (stereo not shown) [F70], the IC50 turned out to be 6 nM. In the case of `COC(=O)N1CC(c2nc(-c3ccc(C)c(NC(=O)c4cnc5ccc(CCC(C)=O)cn45)c3)no2)C1` [F65, methyl 3-(3-(4-methyl-3-(6-(3-oxobutyl)imidazo[1,2-a]pyridine-3-carboxamido)phenyl)-1,2,4-oxadiazol-5-yl)azetidine-1-carboxylate], the IC50 was determined as 33 nM. On to `Cc1ccc(-c2nc(N3CCOCC3)no2)cc1NC(=O)c1cnc2ccccn12` [F75, N-(2-methyl-5-(3-morpholino-1,2,4-oxadiazol-5-yl)phenyl)imidazo[1,2-a]pyridine-3-carboxamide], for which the IC50 was 61 nM. Consider `COC(=O)N1CC(c2nc(-c3ccc(C)c(NC(=O)c4cnc5ccc(CCN6CCOCC6)cn45)c3)no2)C1` [F66, methyl 3-(3-(4-methyl-3-(6-(2-morpholinoethyl)imidazo[1,2-a]pyridine-3-carboxamido)phenyl)-1,2,4-oxadiazol-5-yl)azetidine-1-carboxylate], for which the IC50 amounted to 50 nM.

Staying with this assay, now noted: Table 2; human Mo7e cells stimulated with SCF, 48 hours, CellTiter Glo; 1% FBS; read-out: c-kit (Mo7e).
With `Cc1ccc(-c2noc(C3CN(S(=O)(=O)c4cn(C)cn4)C3)n2)cc1NC(=O)c1cnc2ccccn12` [F301], the IC50 was 3970 nM. In the case of `Cc1ccc(-c2noc(C3CCC(=O)N3)n2)cc1NC(=O)c1cnc2ccccn12` (stereo not shown) [F192], the IC50 was 672 nM. For `COC(=O)N1CCC[C@@H](c2nc(-c3ccc(C)c(NC(=O)c4cnc5ccccn45)c3)no2)C1` [F207], the IC50 was 141 nM.

As for `Cn1ccc(S(=O)(=O)N2CC(c3nc(-c4ccc(F)c(NC(=O)c5cnc6ccccn56)c4)no3)C2)n1` [F221], the IC50 was 851 nM. Turning to `Cc1ccc(-c2noc([C@@H]3CC(F)(F)CN3)n2)cc1NC(=O)c1cnc2ccccn12` [F121], the IC50 came out at 205 nM.

For the molecule `COC(=O)N1CC(c2nc(-c3ccc(C)c(NC(=O)c4cnc5ccc(CO)cn45)c3)no2)C1` [F266], the IC50 amounted to 523 nM. For `Cc1ccc(-c2noc(C3CN(C(=O)OC(C)(C)C)CCO3)n2)cc1NC(=O)c1cnc2ccccn12` (stereo not shown) [F277], the IC50 worked out at 1250 nM. On to `Cc1ccc(-c2noc([C@@H]3COCCN3C(=O)OC(C)(C)C)n2)cc1NC(=O)c1cnc2ccccn12` [F116], for which the IC50 worked out at 792 nM. As for `Cc1ccc(-c2noc(C3CNCCO3)n2)cc1NC(=O)c1cnc2ccccn12` (stereo not shown) [F188], the IC50 was 399 nM. Take `Cc1ccc(-c2noc(C3CCN(S(C)(=O)=O)C3)n2)cc1NC(=O)c1cnc2ccccn12` (stereo not shown) [F170]: the IC50 came to 137 nM. Turning to `Cc1ccc2ncc(C(=O)Nc3cc(-c4noc(COC5CN(C(=O)OC(C)(C)C)C5)n4)ccc3C)n2c1` [F267], the IC50 was found to be 650 nM. On the same count and under the same terms, as for `Cc1ccc(-c2noc(CC3CN(S(C)(=O)=O)C3)n2)cc1NC(=O)c1cnc2ccccn12` [F178], the figure is 476 nM; as for `COC(=O)N1CCC[C@H]1c1nc(-c2ccc(C)c(NC(=O)c3cnc4ccccn34)c2)no1` [F196], 475 nM.

For `Cc1ccc(-c2noc(CNC(=O)C3(C)COC3)n2)cc1NC(=O)c1cnc2ccccn12` [F148], the IC50 turned out to be 150 nM. In the case of `Cc1ccc(-c2noc(C(NC(=O)OC(C)(C)C)C3COC3)n2)cc1NC(=O)c1cnc2ccccn12` (stereo not shown) [F183], the IC50 stood at 454 nM.

As for `Cc1ccc(-c2noc([C@@H]3CCC(=O)N3)n2)cc1NC(=O)c1cnc2ccccn12` [F191], the IC50 was found to be 465 nM. On to `Cc1ccc(-c2noc(CC3CCN(C(=O)OC(C)(C)C)CC3)n2)cc1NC(=O)c1cnc2ccccn12` [F210], for which the IC50 amounted to 710 nM.

On to `Cc1ccc(-c2noc(C3CN(C(=O)OC(C)(C)C)C3)n2)cc1NC(=O)c1cnc2ccccn12` [F113], for which the IC50 came to 623 nM. Same read-out and setting: as for `Cc1ccc(-c2noc(CNC(=O)CC3CCCO3)n2)cc1NC(=O)c1cnc2ccccn12` (stereo not shown) [F145], the figure is 447 nM. For `Cc1ccc(-c2noc([C@H]3COCCN3S(C)(=O)=O)n2)cc1NC(=O)c1cnc2ccccn12` [F167], the IC50 was found to be 102 nM.

On to `Cc1ccc(-c2noc([C@@H]3C[C@H](O)CN3S(C)(=O)=O)n2)cc1NC(=O)c1cnc2ccc(F)cn12` [F287], for which the IC50 turned out to be 1680 nM. Regarding `Cc1cc(F)c(-c2noc(C3CN(S(C)(=O)=O)C3)n2)cc1NC(=O)c1cnc2ccccn12` [F232], the IC50 came out at 489 nM. For `Cc1ccc(-c2noc(C3CN(S(=O)(=O)C4CCN(C(=O)OC(C)(C)C)C4)C3)n2)cc1NC(=O)c1cnc2ccccn12` (stereo not shown) [F162], the IC50 was 249 nM. Regarding `Cc1ccc(-c2noc(CN3CCCC3=O)n2)cc1NC(=O)c1cnc2ccccn12` [F143], the IC50 was found to be 314 nM. Turning to `CC(=O)N1CCC(c2nc(-c3ccc(C)c(NC(=O)c4cnc5ccccn45)c3)no2)CC1` [F193], the IC50 was 354 nM. As for `COC(=O)N1CC[C@H](Cc2nc(-c3ccc(C)c(NC(=O)c4cnc5ccccn45)c3)no2)C1` [F205], the IC50 turned out to be 284 nM.

As to `COC(=O)N1CC(F)(F)C[C@H]1c1nc(-c2ccc(C)c(NC(=O)c3cnc4ccccn34)c2)no1` [F172], the IC50 is 122 nM. `O=C(Nc1cc(-c2noc(C3CN(S(=O)(=O)c4cccnc4)C3)n2)ccc1F)c1cnc2ccccn12` [F220]: the IC50 was 690 nM. For the molecule `COC1CN(C(=O)OCc2nc(-c3ccc(C)c(NC(=O)c4cnc5ccccn45)c3)no2)C1` [F138], the IC50 was found to be 270 nM. As for `COCC(c1nc(-c2ccc(C)c(NC(=O)c3cnc4ccccn34)c2)no1)N1CCC(F)(F)C1` (stereo not shown) [F237], the IC50 came to 109 nM. For the molecule `CC(=O)N1CCOC[C@H]1c1nc(-c2ccc(C)c(NC(=O)c3cnc4ccccn34)c2)no1` [F275], the IC50 came out at 1230 nM. Consider `CC(=O)N1CCOC[C@@H]1c1nc(-c2ccc(C)c(NC(=O)c3cnc4ccccn34)c2)no1` [F168], for which the IC50 was determined as 358 nM. On to `Cc1ccc(-c2noc(C3(C)CN(C(=O)OC(C)(C)C)C3)n2)cc1NC(=O)c1cnc2ccccn12` [F239], for which the IC50 is 831 nM.
